Results taken from patent publication US8067424B2, “Selective inhibitors for cyclin-dependent kinases” (Emory University, priority 2007, dated 2011).
Like-named read-outs stand apart in the source and are kept apart here.

What was measured:
Assay type in all cases: biochemical
ERK8 = molecular target: T1, ERK8 (Homo sapiens, UniProt Q8TD08); experiment: Kinase screen: ERK8 assay
T1 sequence (Q8TD08 1-544): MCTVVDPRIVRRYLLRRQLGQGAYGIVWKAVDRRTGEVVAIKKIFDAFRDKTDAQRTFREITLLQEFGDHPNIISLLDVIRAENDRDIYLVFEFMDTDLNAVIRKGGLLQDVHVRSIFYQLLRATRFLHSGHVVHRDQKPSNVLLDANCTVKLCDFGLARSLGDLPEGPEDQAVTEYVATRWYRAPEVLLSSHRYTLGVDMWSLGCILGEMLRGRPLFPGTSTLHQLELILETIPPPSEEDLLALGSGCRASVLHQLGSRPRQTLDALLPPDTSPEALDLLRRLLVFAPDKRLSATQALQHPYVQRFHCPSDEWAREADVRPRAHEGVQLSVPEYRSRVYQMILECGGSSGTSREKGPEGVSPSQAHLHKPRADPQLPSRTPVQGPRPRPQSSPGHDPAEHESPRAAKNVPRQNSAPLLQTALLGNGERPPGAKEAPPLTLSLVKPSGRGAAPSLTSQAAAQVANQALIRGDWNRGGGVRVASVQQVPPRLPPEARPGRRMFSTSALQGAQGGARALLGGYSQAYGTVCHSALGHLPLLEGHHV
Procedure: (§1) Generally, the same procedure was used for all assays. Since the total assay volume was 25.5 microliters, 0.5 microliters of inhibitors at 51× assay concentration were added to the plates before any other addition.
(§2) The basic procedure was to add 0.5 microliters inhibitor/control in DMSO to plate. Fifteen microliters of enzyme/substrate/buffer mix were added and incubated for 5 min. Ten microliters MgATP at the relevant concentration were added and incubated for 30 min. The assay was stopped by adding 5 microliters of 3% orthophosphoric acid. The assay was transferred to a p81 filter plate and read in a scintillation counter of 30 sec/well. Note that this assay procedure was not followed for MKK1, which instead involved a two-step assay, and PKC alpha, which required the addition of lipid vesicles.
ERK8 assay: 5-20 mU of ERK8 (diluted in 50 mM Tris (pH 7.5), 0.1 mM EGTA, 1 mg/ml BSA, 0.1%, b-Mercaptoethanol) was assayed against MBP in a final volume of 25.5 μl containing 50 mM Tris (pH 7.5), 0.1 mM EGTA, 0.1%, b-Mercaptoethanol, 0.33 mg/ml MBP, 10 mM magnesium acetate and 0.005 mM [33P-g-ATP] (500-1000 cpm/pmole) and incubated for 30 mins at room temperature. Assays were stopped by addition of 5 μl of 0.5M (3%) orthophosphoric acid. Assays were harvested onto P81 Unifilter plates using a wash buffer of 50 mM orthophosphoric acid.

PKC zeta = molecular target: T2, PKC zeta (Homo sapiens, UniProt Q05513); experiment: Kinase screen: PKC zeta assay
T2 sequence (Q05513 1-592): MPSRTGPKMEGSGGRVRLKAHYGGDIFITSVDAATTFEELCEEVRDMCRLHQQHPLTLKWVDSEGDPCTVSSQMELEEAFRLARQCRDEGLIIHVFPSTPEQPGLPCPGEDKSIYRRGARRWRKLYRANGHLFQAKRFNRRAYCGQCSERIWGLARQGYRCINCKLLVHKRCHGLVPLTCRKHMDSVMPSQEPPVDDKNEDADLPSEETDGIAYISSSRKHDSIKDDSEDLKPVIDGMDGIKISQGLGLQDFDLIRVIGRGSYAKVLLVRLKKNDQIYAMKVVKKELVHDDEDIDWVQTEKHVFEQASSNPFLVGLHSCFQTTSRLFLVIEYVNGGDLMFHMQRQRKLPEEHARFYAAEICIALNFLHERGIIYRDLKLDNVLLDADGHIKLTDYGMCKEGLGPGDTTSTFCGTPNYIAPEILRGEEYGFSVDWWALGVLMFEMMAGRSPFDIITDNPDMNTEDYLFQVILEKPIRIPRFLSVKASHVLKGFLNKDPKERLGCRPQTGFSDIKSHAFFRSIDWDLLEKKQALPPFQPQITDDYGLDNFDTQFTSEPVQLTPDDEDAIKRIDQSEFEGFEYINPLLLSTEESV
Procedure: as §1, §2
(§3) PKC zeta assay: PKC zeta (5-20 mU diluted in 50 mM Tris pH 7.5, 0.1 mM EGTA, 0.1% b-mercaptoethanol, 1 mg/ml BSA, 100 μM Vanadate) was assayed against a substrate peptide ([…]) (SEQ ID NO: 34) in a final volume of 25.5 μl containing 50 mM Tris pH 7.5, 0.05% b-mercaptoethanol, 10 μM Vanadate, 300 μM substrate peptide, 10 mM magnesium acetate and 0.005 mM [33P-g-ATP] (50-1000 cpm/pmole) and incubated for 30 min at room temperature. Assays were stopped by addition of 5 μl of 0.5 M (3%) orthophosphoric acid and then harvested onto P81 Unifilter plates with a wash buffer of 50 mM orthophosphoric acid.

CAMKKβ = CAMKKβ (Homo sapiens, UniProt Q96RR4); experiment: Kinase screen: CAMKKb assay
Procedure: as §1, §2
(500-1000 cpm/pmole) and incubated for 30 mins at room temperature. […] Assays were harvested onto P81 Unifilter plates using a wash buffer of 50 mM orthophosphoric acid.

PAK6 = PAK6 (Homo sapiens, UniProt Q9NQU5); experiment: Kinase screen: PAK6 assay
Sequence of PAK6 (Q9NQU5 whole entry, species assumed): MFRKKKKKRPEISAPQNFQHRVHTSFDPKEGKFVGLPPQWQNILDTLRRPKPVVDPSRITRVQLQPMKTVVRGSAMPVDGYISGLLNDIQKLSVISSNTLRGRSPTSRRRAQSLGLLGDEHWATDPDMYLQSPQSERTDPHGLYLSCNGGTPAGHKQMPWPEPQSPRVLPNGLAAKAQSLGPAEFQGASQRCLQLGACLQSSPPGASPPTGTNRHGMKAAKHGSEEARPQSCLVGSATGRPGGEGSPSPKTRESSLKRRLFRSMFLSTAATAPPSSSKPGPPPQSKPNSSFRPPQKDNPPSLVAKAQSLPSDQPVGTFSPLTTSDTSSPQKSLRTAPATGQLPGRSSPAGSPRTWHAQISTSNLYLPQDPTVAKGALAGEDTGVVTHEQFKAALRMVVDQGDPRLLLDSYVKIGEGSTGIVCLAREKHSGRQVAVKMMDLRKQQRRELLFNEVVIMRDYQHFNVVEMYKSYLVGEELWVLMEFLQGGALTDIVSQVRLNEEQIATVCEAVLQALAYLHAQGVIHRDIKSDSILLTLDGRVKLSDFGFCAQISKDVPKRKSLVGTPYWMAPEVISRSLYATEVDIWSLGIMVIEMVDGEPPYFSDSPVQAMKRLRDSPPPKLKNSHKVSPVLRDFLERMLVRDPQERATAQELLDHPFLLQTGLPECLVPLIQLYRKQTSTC
Procedure: as §1, §2
as §3, with “PAK6” for “PKC zeta”, “BSA)” for “BSA, 100 μM Vanadate)”, “30)” for “34)”, “b-mercaptoethanol,” for “b-mercaptoethanol, 10 μM Vanadate,”, “0.02” for “0.005”

[1] = 10 micromolar compound, read-out: mean activity remaining (as a percentage of the original activity), ERK8
[2] = 10 micromolar compound, read-out: mean activity remaining (as a percentage of the original activity), PKC zeta
[3] = 0.5 h, read-out: mean activity remaining (as a percentage of the original activity), CAMK Kb
[4] = 10 micromolar compound, read-out: mean activity remaining (as a percentage of the original activity), PAK6

CC(C)c1cnn2c(NCc3ccccc3)cc(NCCCCCCCN)nc12 [BS-181]
remaining activity at 10 µM (ERK8; ERK8, 10 μM, read-out: Mean Remaining Enzyme Activity (%)): 32%
remaining activity at 10 µM (PKC zeta; PKC zeta, 10 μM, read-out: Mean Remaining Enzyme Activity (%)): 114%
remaining activity at 10 µM (CAMKKβ; CAMKKβ, 10 μM, read-out: Mean Remaining Enzyme Activity (%)): 67%
remaining activity at 10 µM (PAK6; PAK6, 10 μM, read-out: Mean Remaining Enzyme Activity (%)): 95%

C=C[C@H](CO)Nc1cc(NCc2ccccc2)n2ncc(C(C)C)c2n1 [ICEC0065]
remaining activity at 10 µM (ERK8; [1]): 28%
remaining activity at 10 µM (PKC zeta; [2]): 84%
remaining activity at 10 µM (CAMKKβ; [3]): 31%
remaining activity at 10 µM (PAK6; [4]): 82%

CC[C@H](CO)Nc1cc(NCc2ccccc2)n2ncc(C(C)C)c2n1 [ICEC0067]
remaining activity at 10 µM (ERK8; [1]): 23%
remaining activity at 10 µM (PKC zeta; [2]): 76%
remaining activity at 10 µM (CAMKKβ; [3]): 29%
remaining activity at 10 µM (PAK6; [4]): 78%

CC(C)c1cnn2c(NCc3ccccc3)cc(N[C@@H](CO)[C@H](O)CO)nc12 [ICEC0318, (3S)-3-(7-(Benzylamino)-3-isopropylpyrazolo[1,5-a]pyrimidin-5-ylamino)butane-1,2,4-triol]
remaining activity at 10 µM (ERK8; [1]): 26%
remaining activity at 10 µM (PKC zeta; [2]): 64%
remaining activity at 10 µM (CAMKKβ; [3]): 23%
remaining activity at 10 µM (PAK6; [4]): 85%

CC(C)c1cnn2c(NCc3ccccc3F)cc(NCCCCCN)nc12 [ICEC-0232]
mean activity remaining (as a percentage of the original activity), ERK8 (ERK8; 10 micromolar compound): 23%
mean activity remaining (as a percentage of the original activity), PKC zeta (PKC zeta; 10 micromolar compound): 65%
mean activity remaining (as a percentage of the original activity), CAMK Kb (CAMKKβ; 10 micromolar compound): 18%
mean activity remaining (as a percentage of the original activity), PAK6 (PAK6; 10 micromolar compound): 85%
